Compound in one test: COc1cc2nccc(Oc3ccc(NC(=O)NC4CC4)c(Cl)c3)c2cc1C(N)=O [LENVATINIB]
Briefly: surviving fraction relative to DMSO-only wells; higher = less growth inhibition. Particulars: exposure time: 5 days. The procedure, abridged: (§1)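 At 250–500 cells per well in 384-well plates, log-phase tumour cell lines were seeded and, 24 hours on, exposed continuously for five days to inhibitors at 0.5, 1, 5, 10, 50, 100, 500 and 1000 nM. Viability readout was CellTiter-Glo luminescence, reported as surviving fraction normalised to the median of DMSO-only wells.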

Compound in a further test: Cc1ccc(NC(=O)c2ccc(CN3CCN(C)CC3)cc2)cc1Nc1nccc(-c2cccnc2)n1 [IMATINIB]
Described as above. Particulars: exposure time: 5 days. The procedure, abridged:
as §1

± gives the standard deviation of the averaged measurements.

In the case of HMT3552 BREAST, the surviving fraction is 1.03 with LENVATINIB (0.5 nM); 0.978 in the test with LENVATINIB (1 nM); 1.01 in the test with LENVATINIB (5 nM); 0.921 in the test with LENVATINIB (10 nM); 0.975 with LENVATINIB (50 nM); 1.02 in the test with LENVATINIB (100 nM). The surviving fraction in the test with LENVATINIB (500 nM) was determined as 0.944; in the test with LENVATINIB (1000 nM), 0.893; in the test with IMATINIB (0.5 nM), 1.01 ± 0.039; with IMATINIB (1 nM), 0.967 ± 0.041; in the test with IMATINIB (5 nM), 1.04 ± 0.032; with IMATINIB (10 nM), 0.988 ± 0.057. Further, the surviving fraction with IMATINIB (50 nM) turned out to be 1.15 ± 0.061; with IMATINIB (100 nM), 1.17 ± 0.062; with IMATINIB (500 nM) it was 1.18 ± 0.047; with IMATINIB (1000 nM), 1.16 ± 0.076.
Turning to HS578T BREAST, the surviving fraction with LENVATINIB (0.5 nM) was 0.934 ± 0.11; in the test with LENVATINIB (1 nM), 1.16 ± 0.058; in the test with LENVATINIB (5 nM) it was 0.871 ± 0.17; with LENVATINIB (10 nM), 0.974 ± 0.041; with LENVATINIB (50 nM), 0.984 ± 0.078; in the test with LENVATINIB (100 nM), 0.91 ± 0.068. Moreover, the surviving fraction with LENVATINIB (500 nM) was determined as 1.01 ± 0.1; with LENVATINIB (1000 nM) it was 0.871 ± 0.045; with IMATINIB (0.5 nM), 1.23 ± 0.27; with IMATINIB (1 nM), 1.01 ± 0.11; with IMATINIB (5 nM) it was 1.02 ± 0.12; with IMATINIB (10 nM) it was 1.14 ± 0.27. Also, the surviving fraction came to 1.21 ± 0.18 with IMATINIB (50 nM), 1.07 ± 0.1 in the test with IMATINIB (100 nM), 1.1 ± 0.16 with IMATINIB (500 nM) and 1.2 ± 0.17 with IMATINIB (1000 nM).
Regarding G292 BONE, the surviving fraction with LENVATINIB (0.5 nM) came out at 0.99 ± 0.053; with LENVATINIB (1 nM) it was 0.993 ± 0.054; with LENVATINIB (5 nM) it was 1.02 ± 0.065; with LENVATINIB (10 nM), 0.961 ± 0.019; with LENVATINIB (50 nM), 0.838 ± 0.027; with LENVATINIB (100 nM), 0.725 ± 0.013. The surviving fraction worked out at 0.33 ± 0.017 in the test with LENVATINIB (500 nM); 0.203 ± 0.0041 in the test with LENVATINIB (1000 nM); 1.01 ± 0.037 with IMATINIB (0.5 nM); 1.038 ± 0.0097 with IMATINIB (1 nM); 1.09 ± 0.024 with IMATINIB (5 nM); 1.05 ± 0.024 with IMATINIB (10 nM). For the same test system, the surviving fraction with IMATINIB (100 nM) was found to be 1.04 ± 0.028; with IMATINIB (500 nM), 0.862 ± 0.029; in the test with IMATINIB (1000 nM) it was 0.923 ± 0.065.
As to HCC38 BREAST, the surviving fraction with LENVATINIB (0.5 nM) turned out to be 1.03 ± 0.056; in the test with LENVATINIB (1 nM), 1.19 ± 0.23; in the test with LENVATINIB (5 nM), 1.24 ± 0.24; with LENVATINIB (10 nM), 1.19 ± 0.091; with LENVATINIB (50 nM), 1.35 ± 0.052; with LENVATINIB (100 nM), 1.28 ± 0.054. Besides, the surviving fraction with LENVATINIB (500 nM) turned out to be 1.18 ± 0.091; in the test with LENVATINIB (1000 nM), 1.09 ± 0.17; in the test with IMATINIB (0.5 nM), 1.32 ± 0.15; with IMATINIB (1 nM), 1.13 ± 0.13; with IMATINIB (5 nM), 1.39 ± 0.13; with IMATINIB (10 nM), 1.3 ± 0.27. Moreover, the surviving fraction in the test with IMATINIB (50 nM) worked out at 1.31 ± 0.15; with IMATINIB (100 nM) it was 1.46 ± 0.21; with IMATINIB (500 nM) it was 1.08 ± 0.12; with IMATINIB (1000 nM), 1.1 ± 0.029.
As for HMLE3 BREAST, the surviving fraction is 1.03 ± 0.019 in the test with LENVATINIB (0.5 nM); 0.951 ± 0.054 with LENVATINIB (1 nM); 1.03 ± 0.052 with LENVATINIB (5 nM); 1.05 ± 0.09 with LENVATINIB (10 nM); 0.998 ± 0.12 with LENVATINIB (50 nM); 0.905 ± 0.096 in the test with LENVATINIB (100 nM). The surviving fraction with LENVATINIB (500 nM) worked out at 0.718 ± 0.029; in the test with LENVATINIB (1000 nM), 0.658 ± 0.047; with IMATINIB (0.5 nM), 1.08 ± 0.038; in the test with IMATINIB (1 nM), 1.14 ± 0.11; in the test with IMATINIB (5 nM), 1.11 ± 0.08; with IMATINIB (10 nM) it was 1.21 ± 0.062. Also, the surviving fraction came to 1.14 ± 0.047 with IMATINIB (50 nM), 1.23 ± 0.13 in the test with IMATINIB (100 nM), 1.16 ± 0.054 with IMATINIB (500 nM) and 1.01 ± 0.089 with IMATINIB (1000 nM).
Consider CCK81 LARGE INTESTINE, for which the surviving fraction with IMATINIB (0.5 nM) was found to be 0.813 ± 0.083; with IMATINIB (1 nM), 0.815 ± 0.09; with IMATINIB (5 nM), 0.81 ± 0.038; in the test with IMATINIB (10 nM), 0.795 ± 0.048; with IMATINIB (50 nM), 0.706 ± 0.049; with IMATINIB (100 nM), 0.843 ± 0.11. The figures for the surviving fraction with IMATINIB (500 nM) and with IMATINIB (1000 nM) were 0.741 ± 0.078 and 0.778 ± 0.047, respectively.
Turning to HCC70 BREAST, the surviving fraction in the test with LENVATINIB (0.5 nM) stood at 1.12 ± 0.07; in the test with LENVATINIB (1 nM), 1.136 ± 0.004; with LENVATINIB (5 nM), 1.08 ± 0.067; in the test with LENVATINIB (10 nM), 1.15 ± 0.013; in the test with LENVATINIB (50 nM) it was 1.27 ± 0.1; in the test with LENVATINIB (100 nM), 1.13 ± 0.056. The surviving fraction with LENVATINIB (500 nM) was 1.054 ± 0.0066; with LENVATINIB (1000 nM), 1.23 ± 0.09; with IMATINIB (0.5 nM), 1.116 ± 0.0051; with IMATINIB (1 nM), 1.08 ± 0.071; with IMATINIB (5 nM) it was 1.04 ± 0.04; with IMATINIB (10 nM) it was 1.1 ± 0.054. The values for the surviving fraction with IMATINIB (50 nM), in the test with IMATINIB (100 nM) and in the test with IMATINIB (1000 nM) were 1.17 ± 0.11, 1.15 ± 0.043 and 1.45 ± 0.69, respectively.
